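Growth conditions: 96-well plates. Treatment: test compound, 48 hours, 5 concentrations. Analysis: linear interpolation between bracketing concentrations; unreached endpoints set to highest concentration. Abbreviation: GI50, concentration required for 50% inhibition of growth.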 The source made the active and inactive calls. Cut-off read from the data, not from the text of the source: active = GI50 up to about 1.1 µM and inactive = higher.
Tests used:
Assay in all cases: NCI-60 cell line screen, 48 h
[1] = test system: ACHN
[2] = test system: UACC-257
[3] = test system: OVCAR-8
[4] = test system: NCI-H23
[5] = test system: NCI/ADR-RES
[6] = test system: Malme-3M
[7] = test system: TK-10
[8] = test system: COLO 205
[9] = test system: MDA-MB-231
[10] = test system: UACC-62
[11] = test system: NCI-H460
[12] = test system: SN12C
[13] = test system: M14
[14] = test system: PC-3
[15] = test system: DU-145
[16] = test system: Hs-578T
[17] = test system: M19-MEL
[18] = test system: OVCAR-3
[19] = test system: MCF7
[20] = test system: BT-549

Measured: GI50

COC1=CC(=O)c2c(ccc3ncnc(N)c23)C1=O
inactive: [1] 1570 nM | [2] 1660 nM | [3] 2110 nM | [4] 1540 nM | [5] 2310 nM | [6] 2630 nM | [7] 3130 nM | [8] 3580 nM | [9] 1190 nM | [10] 1810 nM | [11] 4290 nM | [12] 1870 nM | [13] 1880 nM | [14] 2320 nM | [15] 1820 nM | [16] 3300 nM | [17] 1690 nM | [18] 1480 nM | [19] 1540 nM | [20] 1790 nM

CCCCC1NC=Nc2c1ccc1c2[nH]c2ccccc21 (stereo not given)
inactive: [1] 3610 nM | [2] 1750 nM | [3] 2030 nM | [4] 1730 nM | [5] 1950 nM | [6] 5330 nM | [7] 5710 nM | [8] 1790 nM | [9] 1730 nM | [10] 4270 nM | [11] 2170 nM | [12] 2890 nM | [13] 2410 nM | [14] 1690 nM | [15] 2600 nM | [16] 2140 nM | [17] 3260 nM | [18] 6100 nM | [19] 1550 nM | [20] 2020 nM

Source: ChEMBL document CHEMBL1201862, “PubChem BioAssay data set” (2004)
